Measured values taken from PMC8085013, “Mixture interactions at mammalian olfactory receptors are dependent on the cellular environment” (Scientific Reports, 2021).
Each block holds one compound with its values, some of them ahead of it.

Key:
mouse Olfr73 [1] = biological target: T1, mouse Olfr73 (Mus musculus, UniProt Q920P2); design: method as in PMID 25149566; conditions: starred cells, previously published in vitro work under the same conditions ref 25; cited from earlier work
T1 sequence (Q920P2 1-313): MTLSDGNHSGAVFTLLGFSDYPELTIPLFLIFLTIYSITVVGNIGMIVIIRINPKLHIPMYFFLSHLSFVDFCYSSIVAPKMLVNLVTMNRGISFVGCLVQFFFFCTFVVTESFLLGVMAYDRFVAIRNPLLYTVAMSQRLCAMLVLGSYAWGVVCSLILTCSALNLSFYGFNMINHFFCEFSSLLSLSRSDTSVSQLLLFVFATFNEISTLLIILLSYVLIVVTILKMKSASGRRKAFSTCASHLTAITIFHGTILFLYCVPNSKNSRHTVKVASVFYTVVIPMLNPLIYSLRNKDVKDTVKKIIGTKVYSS

mouse Olfr73 [2] = biological target: T1, mouse Olfr73; design: method as in PMID 25149566; conditions: starred cells, previously published in vitro work under the same conditions ref 25; cited from earlier work; remark: listed apart in the source
[3] = system: endogenous adrenergic receptors; assay: Isoproterenol saturating control in the cAMP/CNGCmut calcium influx assay in HEK293 cells; assay type: cell-based; conditions: 10 µM, applied for 5-min
Protocol: Calcium imaging was performed as described previously. HEK293 cells were incubated (30 min/37 °C) in a DMEM containing 6–8 µM Fluo-4/AM (Invitrogen) or Fluo-2/AM (TefLabs) containing 0.04% Pluronic F127. Activity of cells expressing untagged ORs from the bicistronic pTR plasmid was reported by expressed GCaMP3. Odorant solutions were applied sequentially to the cells for 5 s with a 3 min interval between each application to allow recovery from desensitization resulting from previous application of odorants. In the case of prolonged 10-min stimulation, the cells were allowed to recover for at least 10 min before adding a binary mix or isoproterenol alone, activating endogenous production of cAMP. Cells growing either on a 35-mm plastic dish or on a round poly-L-lysine coated cover glass were transferred to the stage of an inverted microscope (Axiovert 200, Zeiss) equipped with a 10x/0.5NA Fluar objective. Odorants were applied to the cells as a 5-s long pulse using a computer-controlled fast perfusion system (RSC-200, BioLogic, France) ensuring precise delivery of the stimulus with a minimal time lag. The perfusion system was controlled by Clampex 9.2 or 10.2 software (Molecular Devices). In some experiments, cells were pre-incubated with a putative antagonist for 30-s before applying a 5-s pulse of agonist. […]

mouse Olfr73 [4] = biological target: T1, mouse Olfr73; assay: GCaMP3 calcium imaging of rat OSNs ectopically expressing Olfr73 (rAAV2/5), 5-s odorant pulse; assay type: cell-based; conditions: 5-s pulse
mouse Olfr73 [5] = biological target: T1, mouse Olfr73; assay: GCaMP3 calcium imaging of mouse OSNs ectopically expressing Olfr73 (rAAV2/5), 5-s odorant pulse; assay type: cell-based; conditions: 5-s pulse
Olfr599 [6] = biological target: T2, Olfr599 (Mus musculus, UniProt Q8VG01); assay: Calcium imaging of HEK293 cells expressing Olfr599; assay type: cell-based
T2 sequence (Q8VG01 entry or part of it): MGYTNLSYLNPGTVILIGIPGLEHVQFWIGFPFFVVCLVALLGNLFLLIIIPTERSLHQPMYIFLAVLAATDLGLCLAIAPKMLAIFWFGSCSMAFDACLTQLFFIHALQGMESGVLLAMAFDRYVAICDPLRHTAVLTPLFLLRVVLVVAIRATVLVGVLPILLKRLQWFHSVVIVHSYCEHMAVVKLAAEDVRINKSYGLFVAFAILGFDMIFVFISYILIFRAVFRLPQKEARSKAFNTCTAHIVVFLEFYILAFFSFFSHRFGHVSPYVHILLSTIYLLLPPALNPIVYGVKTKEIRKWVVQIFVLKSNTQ
Protocol: Heterologous expression of mouse ORs was based on the previously published method. HEK293 (ATCC CRL-1537) or HEK293T (ATCC CRL-3216) cells were grown in a high glucose […] (DMEM) supplemented with 10% FBS, penicillin and streptomycin, and 2 mM L-glutamine and maintained at 37 °C (5% CO2). A rhodopsin-tagged mouse olfactory receptor Olfr73 and Olfr599 (provided by Dr. Matsunami, Duke University) was co-expressed with RTP1s, a short version of the Receptor Transporting Protein 1 ensuring proper surface trafficking of the receptor (provided by Dr. Touhara, University of Tokyo). To reconstitute different G-protein coupled signaling pathways, one of the three G-proteins was co-expressed along with the OR and RTP1s, promiscuous mouse Gα15 (Thermo Scientific Open Biosystems), heterotrimeric Gαq11/ß1/γ13, both coupled to endogenous PLC/calcium release, and human Gαolf (Missouri S&T cDNA Resource Center). To assay activity-dependent accumulation of cAMP generated by activation of the Gs/Golf pathway, the cells were additionally co-transfected with a mutated A2 subunit of the rat olfactory cyclic nucleotide gated channel (CNGCmut). Two mutations C460W and E583M ensured high sensitivity and selectivity of the channel to cAMP (a gift from Dr. Rich, University of South Alabama). Transfections were performed using Calfectin (SignaGen). […]

Olfr599 [7] = biological target: T2, Olfr599; assay: GCaMP3 calcium imaging of mouse OSNs ectopically expressing Olfr599 (rAAV2/5); assay type: cell-based; conditions: each at 100 µM, 5-s pulse
Protocol: Animals 4–6 weeks of age were used for experiments 7–21 days post-inoculation with rAAV2/5 encoding OR-furin2A-GCaMP3. Calcium imaging was performed as detailed previously. Tissue was prepared and mounted with the apical surface facing up. The chamber was transferred to the stage of an upright microscope (Zeiss Axioskop-2F) equipped with a 40×/0.75NA long distance water-immersion objective lens. Experimental solutions were applied for a duration of 5 s directly to the field of view through a 100 µm diameter needle made of fused silica and connected to a 9-channel Teflon manifold. Solution application was controlled by electronic valves (VC-6, Warner Instruments). The calcium response is presented as an increase of GCaMP3 fluorescence originating from the knob and underlying dendrite. The tissue was illuminated using a standard eGFP filter cube BP490 nm/ 535 nm (Omega Optical, USA) and the emitted light was collected at 530 nm (BP 530/20 nm, Omega Optical, USA) by a 12-bit cooled CCD camera (ORCA R2, Hamamatsu, Japan). […] Before processing, fluorescence intensity was corrected for the background. Each knob was assigned a region of interest (ROI) and changes in fluorescence intensity within each ROI were analyzed and expressed as the peak fractional change in fluorescent light intensity (F-Fo)/Fo where Fo is the baseline fluorescence before application of experimental solutions.

Compound: isoeugenol
- Agonism/antagonism, HEK293 short odor Ca2+ G15 (mouse Olfr73 [1]): Agonist*
- Agonism/antagonism, HEK293 short odor Ca2+ Gs/olf (mouse Olfr73 [2]): Agonist*

Compound: CC(C)NCC(O)c1ccc(O)c(O)c1 (stereo not shown) [Isoproterenol]
- cAMP-dependent response [3]: robust sustained response

- Agonism/antagonism, OSN Ca2+ Rat (mouse Olfr73 [4]; strong agonist 100 µM, putative antagonist 1 mM): Agonist
- Response to ligand applied alone (mouse Olfr73 [4]; rat Olfr73-OSNs): lower than that to eugenol
- Agonism/antagonism, OSN Ca2+ Mouse (mouse Olfr73 [5]; strong agonist 100 µM, putative antagonist 1 mM, single or as pair): Agonist
- Response relative to the response to eugenol (mouse Olfr73 [5]; ligand 1 mM, Olfr73-OSNs): 50%
- Response to ligand applied alone (mouse Olfr73 [5]; mouse Olfr73-OSNs): weak agonist
Compound: C=C(C)[C@@H]1CCC2=CC(=O)C[C@@H](C)[C@]2(C)C1 [Nootkatone, nootkatone]
- Agonism/antagonism, HEK293 short odor Ca2+ G15 (mouse Olfr73 [1]): Inactive*
- Agonism/antagonism, HEK293 short odor Ca2+ Gs/olf (mouse Olfr73 [2]): Inactive*

Compound: CCCCCCCC(=O)O [Octanoic acid]
- Response to ligand applied alone (Olfr599 [6]; HEK293, Olfr599 with Gαq11/ß1/γ13, 100 µM): robust activation
- EC50 (Olfr599 [6]; HEK293 cells, Olfr599): 70 µM
- Response to ligand applied alone (Olfr599 [7]): evoked reliable neuronal responses
